These are literature values, as cited in patent publication US11266626B2, “Reduction of ER-MAM-localized APP-C99 and methods of treating alzheimer's disease” (THE TRUSTEES OF COLUMBIA UNIVERSITY IN THE CITY OF NEW YORK, priority 2015, dated 2022).

The conditions of this data set: Ghanbarabadi et al.; cited from earlier work.

In the case of `CC(C)=CCC/C(C)=C/COc1ccc2ccc(=O)oc2c1` [auraptene, 7-geranyloxycoumarin], the memory result is reported as “enhances memory”.
